24 molecules from patent publication US11795177B2, “Substituted quinoline analogs as aldehyde dehydrogenase 1A1 (ALDH1A1) inhibitors” (THE UNITED STATES OF AMERICA, AS REPRESENTED BY THE …, priority 2017, dated 2023) can be followed below.

In one assay the test system is MIA PaCa-2 cells. Nature of the assay: MIA PaCa2 cell-based assay (1,536-well high-content imaging ALDEFLUOR assay). Details: species or system human. Conditions: Homo sapiens, 0.5 h, ALDEFLUOR BAAA substrate 500 nM, 30 minutes. In a few lines: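 MIA PaCa-2 cells (1,000/well), plated overnight, given BAAA substrate (500 nM) plus Hoechst 33342 (0.5 nM), then compound (16-point, 1.4 nM–47.8 μM final; 0.5% DMSO). After 30 min at 37° C, ALDH activity imaged by high-content microscopy as BAA-retaining (FITC) cells versus Hoechst-stained nuclei.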

For a further assay, the target named is T1, ALDH1A1 enzyme (Homo sapiens, UniProt P00352).
T1 sequence (P00352 1-501): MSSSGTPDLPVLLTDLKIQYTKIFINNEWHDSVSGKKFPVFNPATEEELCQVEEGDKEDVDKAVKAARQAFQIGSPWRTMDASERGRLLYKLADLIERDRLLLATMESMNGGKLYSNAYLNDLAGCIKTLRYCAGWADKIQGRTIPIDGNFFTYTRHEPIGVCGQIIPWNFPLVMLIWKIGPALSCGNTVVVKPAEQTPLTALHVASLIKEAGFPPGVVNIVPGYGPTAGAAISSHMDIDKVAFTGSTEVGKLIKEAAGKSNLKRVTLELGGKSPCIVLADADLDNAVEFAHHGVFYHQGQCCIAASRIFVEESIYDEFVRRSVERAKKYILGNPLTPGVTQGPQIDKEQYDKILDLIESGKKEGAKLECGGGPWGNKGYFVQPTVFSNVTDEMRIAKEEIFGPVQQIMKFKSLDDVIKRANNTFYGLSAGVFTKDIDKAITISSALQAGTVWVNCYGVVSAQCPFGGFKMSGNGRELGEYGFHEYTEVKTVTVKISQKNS
Put plainly: ALDH1A1 enzymatic assay (in vitro). It is filed as biochemical. Conditions: ALDH1A1 enzyme 20 nM, NAD+ 1 mM, propionaldehyde 80 μM; read-out: ALDH1A1 IC50. In a few lines:
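ALDH1A1 (20 nM final) in 100 mM HEPES pH 7.5, 0.01% Tween 20 was preincubated 15 min at RT with compound (968 pM–57.2 μM final), then started with 1 mM NAD+ and 80 μM propionaldehyde. NADH fluorescence (ex 340/em 450 nm) followed kinetically for 10 min; change normalized to no-inhibitor and no-enzyme controls for percent inhibition and curve fitting.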

The structures appear in SMILES notation.

For `CCNC(=O)N1CCN(C(=O)c2cnc3c(F)c(OC)c(F)cc3c2N2CCC3(CC2)OCCO3)CC1` [Example 143, 4-(6,8-difluoro-7-methoxy-4-(1,4-dioxa-8-azaspiro[4.5]decan-8-yl)quinoline-3-carbonyl)-N-ethylpiperazine-1-carboxamide], the IC50 (as a rule, the point on the concentration scale where inhibition reaches its midpoint) with MIA PaCa-2 cells is 1000 to 10000 nM; on ALDH1A1 enzyme, less than 500 nM.

In the case of `CCNC(=O)N1CCN(C(=O)c2cnc3c(F)c(F)c(F)cc3c2N2CCC3(CC2)OCCO3)CC1` [Example 144, N-ethyl-4-(6,7,8-trifluoro-4-(1,4-dioxa-8-azaspiro[4.5]decan-8-yl)quinoline-3-carbonyl)piperazine-1-carboxamide], the values for the IC50 in the assay with MIA PaCa-2 cells and on ALDH1A1 enzyme were 1000 to 10000 nM and less than 500 nM, respectively.

Take `CCNC(=O)N1CCN(C(=O)c2cnc3c(F)cc(F)cc3c2N2CCC(C)(C#N)CC2)CC1` [Example 145, 4-(4-(4-cyano-4-methylpiperidin-1-yl)-6,8-difluoroquinoline-3-carbonyl)-N-ethylpiperazine-1-carboxamide]: the 50% inhibitory concentration (IC50) with MIA PaCa-2 cells was more than 10000 nM; on ALDH1A1 enzyme, 500 to 1000 nM.

Consider `CCNC(=O)N1CCN(C(=O)c2cnc3cc(F)c(F)cc3c2N2CCC(C)(C#N)CC2)CC1` [Example 146, 4-(4-(4-cyano-4-methylpiperidin-1-yl)-6,7-difluoroquinoline-3-carbonyl)-N-ethylpiperazine-1-carboxamide], for which the figures for the IC50 in the assay with MIA PaCa-2 cells and at ALDH1A1 enzyme were 1000 to 10000 nM and 500 to 1000 nM, respectively.

As to `CCNC(=O)N1CCN(C(=O)c2cnc3c(F)c(OC)c(F)cc3c2N2CCC(C)(C#N)CC2)CC1` [Example 147, 4-(4-(4-cyano-4-methylpiperidin-1-yl)-6,8-difluoro-7-methoxyquinoline-3-carbonyl)-N-ethylpiperazine-1-carboxamide], the IC50 was 1000 to 10000 nM in the assay with MIA PaCa-2 cells and less than 500 nM at ALDH1A1 enzyme.

Take `CCNC(=O)N1CCN(C(=O)c2cnc3c(F)c(F)c(F)cc3c2N2CCC(C)(C#N)CC2)CC1` [Example 148, 4-(4-(4-cyano-4-methylpiperidin-1-yl)-6,7,8-trifluoroquinoline-3-carbonyl)-N-ethylpiperazine-1-carboxamide]: the half-maximal inhibitory concentration (IC50) in the assay with MIA PaCa-2 cells and on ALDH1A1 enzyme was 1000 to 10000 nM throughout.

As to `CCN(CC)C(=O)N1CCN(C(=O)c2cnc3ccc(F)cc3c2N2CCC3(CC2)OCCO3)CC1` [Example 149, N,N-diethyl-4-(6-fluoro-4-(1,4-dioxa-8-azaspiro[4.5]decan-8-yl)quinoline-3-carbonyl)piperazine-1-carboxamide], the values for the IC50 in the assay on MIA PaCa-2 cells and at ALDH1A1 enzyme were 1000 to 10000 nM and less than 500 nM, respectively.

`O=C(c1cnc2ccc(F)cc2c1N1CCC2(CC1)OCCO2)N1CCN(C(=O)N2CCCC2)CC1` [Example 150, (6-fluoro-4-(1,4-dioxa-8-azaspiro[4.5]decan-8-yl)quinolin-3-yl)(4-(pyrrolidine-1-carbonyl)piperazin-1-yl)methanone]: the IC50 in the assay with MIA PaCa-2 cells was more than 10000 nM; on ALDH1A1 enzyme it was less than 500 nM.

With `CCS(=O)(=O)N1CCN(C(=O)c2cnc3ccc(F)cc3c2N2CCC3(CC2)OCCO3)CC1` [Example 151, (4-(ethylsulfonyl)piperazin-1-yl)(6-fluoro-4-(1,4-dioxa-8-azaspiro[4.5]decan-8-yl)quinolin-3-yl)methanone], the IC50 was 1000 to 10000 nM in the assay on MIA PaCa-2 cells and less than 500 nM on ALDH1A1 enzyme.

Take `CN(C)S(=O)(=O)N1CCN(C(=O)c2cnc3ccc(F)cc3c2N2CCC3(CC2)OCCO3)CC1` [Example 152, 4-(6-fluoro-4-(1,4-dioxa-8-azaspiro[4.5]decan-8-yl)quinoline-3-carbonyl)-N,N-dimethylpiperazine-1-sulfonamide]: the figures for the IC50 in the assay on MIA PaCa-2 cells and on ALDH1A1 enzyme were 500 to 1000 nM and less than 500 nM, respectively.

Regarding `O=C(c1cnc2ccc(F)cc2c1N1CCC2(CC1)OCCO2)N1CCN(S(=O)(=O)N2CCCC2)CC1` [Example 153, (6-fluoro-4-(1,4-dioxa-8-azaspiro[4.5]decan-8-yl)quinolin-3-yl)(4-(pyrrolidin-1-ylsulfonyl)piperazin-1-yl)methanone], the IC50 is more than 10000 nM with MIA PaCa-2 cells and less than 500 nM on ALDH1A1 enzyme.

In the case of `CCN(CC)C(=O)N1CCN(C(=O)c2cnc3ccc(F)cc3c2N2CCC(C)(C#N)CC2)CC1` [Example 154, 4-(4-(4-cyano-4-methylpiperidin-1-yl)-6-fluoroquinoline-3-carbonyl)-N,N-diethylpiperazine-1-carboxamide], the values for the IC50 with MIA PaCa-2 cells and at ALDH1A1 enzyme were 1000 to 10000 nM and less than 500 nM, respectively.

For `CC1(C#N)CCN(c2c(C(=O)N3CCN(C(=O)N4CCCC4)CC3)cnc3ccc(F)cc23)CC1` [Example 155, 1-(6-fluoro-3-(4-(pyrrolidine-1-carbonyl)piperazine-1-carbonyl)quinolin-4-yl)-4-methylpiperidine-4-carbonitrile], the 50% inhibitory concentration (IC50) in the assay with MIA PaCa-2 cells was more than 10000 nM; at ALDH1A1 enzyme, 1000 to 10000 nM.

Regarding `CC1(C#N)CCN(c2c(C(=O)N3CCN(S(=O)(=O)N4CCCC4)CC3)cnc3ccc(F)cc23)CC1` [Example 158, 1-(6-fluoro-3-(4-(pyrrolidin-1-ylsulfonyl)piperazine-1-carbonyl)quinolin-4-yl)-4-methylpiperidine-4-carbonitrile], the values for the IC50 with MIA PaCa-2 cells and at ALDH1A1 enzyme were more than 10000 nM and 1000 to 10000 nM, respectively.

With `CCN(CC)C(=O)N1CCN(C(=O)c2cnc3c(F)cc(F)cc3c2N2CCC3(CC2)OCCO3)CC1` [Example 159, 4-(6,8-difluoro-4-(1,4-dioxa-8-azaspiro[4.5]decan-8-yl)quinoline-3-carbonyl)-N,N-diethylpiperazine-1-carboxamide], the IC50 in the assay on MIA PaCa-2 cells is 1000 to 10000 nM; at ALDH1A1 enzyme it was less than 500 nM.

In the case of `O=C(c1cnc2c(F)cc(F)cc2c1N1CCC2(CC1)OCCO2)N1CCN(C(=O)N2CCCC2)CC1` [Example 160, (6,8-difluoro-4-(1,4-dioxa-8-azaspiro[4.5]decan-8-yl)quinolin-3-yl)(4-(pyrrolidine-1-carbonyl)piperazin-1-yl)methanone], the half-maximal inhibitory concentration (IC50) in the assay with MIA PaCa-2 cells is more than 10000 nM; at ALDH1A1 enzyme, less than 500 nM.

For `CCS(=O)(=O)N1CCN(C(=O)c2cnc3c(F)cc(F)cc3c2N2CCC3(CC2)OCCO3)CC1` [Example 161, (6,8-difluoro-4-(1,4-dioxa-8-azaspiro[4.5]decan-8-yl)quinolin-3-yl)(4-(ethylsulfonyl)piperazin-1-yl)methanone], the IC50 in the assay with MIA PaCa-2 cells is 1000 to 10000 nM; at ALDH1A1 enzyme, less than 500 nM.

As for `CN(C)S(=O)(=O)N1CCN(C(=O)c2cnc3c(F)cc(F)cc3c2N2CCC3(CC2)OCCO3)CC1` [Example 162, 4-(6,8-difluoro-4-(1,4-dioxa-8-azaspiro[4.5]decan-8-yl)quinoline-3-carbonyl)-N,N-dimethylpiperazine-1-sulfonamide], the half-maximal inhibitory concentration (IC50) with MIA PaCa-2 cells was 500 to 1000 nM; at ALDH1A1 enzyme it was less than 500 nM.

`O=C(c1cnc2c(F)cc(F)cc2c1N1CCC2(CC1)OCCO2)N1CCN(S(=O)(=O)N2CCCC2)CC1` [Example 163, (6,8-difluoro-4-(1,4-dioxa-8-azaspiro[4.5]decan-8-yl)quinolin-3-yl)(4-(pyrrolidin-1-ylsulfonyl)piperazin-1-yl)methanone]: the results for the IC50 in the assay on MIA PaCa-2 cells and at ALDH1A1 enzyme were more than 10000 nM and less than 500 nM, respectively.

Turning to `CCN(CC)C(=O)N1CCN(C(=O)c2cnc3c(F)cc(F)cc3c2N2CCC(C)(C#N)CC2)CC1` [Example 164, 4-(4-(4-cyano-4-methylpiperidin-1-yl)-6,8-difluoroquinoline-3-carbonyl)-N,N-diethylpiperazine-1-carboxamide], the IC50 lay in the range of 1000 to 10000 nM in the assay on MIA PaCa-2 cells and 500 to 1000 nM on ALDH1A1 enzyme.

For the molecule `CC1(C#N)CCN(c2c(C(=O)N3CCN(C(=O)N4CCCC4)CC3)cnc3c(F)cc(F)cc23)CC1` [Example 165, 1-(6,8-difluoro-3-(4-(pyrrolidine-1-carbonyl)piperazine-1-carbonyl)quinolin-4-yl)-4-methylpiperidine-4-carbonitrile], the half-maximal inhibitory concentration (IC50) in the assay with MIA PaCa-2 cells and at ALDH1A1 enzyme was 1000 to 10000 nM each time.

On to `CCS(=O)(=O)N1CCN(C(=O)c2cnc3c(F)cc(F)cc3c2N2CCC(C)(C#N)CC2)CC1` [Example 166, 1-(3-(4-(ethylsulfonyl)piperazine-1-carbonyl)-6,8-difluoroquinolin-4-yl)-4-methylpiperidine-4-carbonitrile], for which the concentration for half-maximal inhibition (IC50) with MIA PaCa-2 cells was 1000 to 10000 nM; on ALDH1A1 enzyme it was less than 500 nM.

As to `CN(C)S(=O)(=O)N1CCN(C(=O)c2cnc3c(F)cc(F)cc3c2N2CCC(C)(C#N)CC2)CC1` [Example 167, 4-(4-(4-cyano-4-methylpiperidin-1-yl)-6,8-difluoroquinoline-3-carbonyl)-N,N-dimethylpiperazine-1-sulfonamide], the IC50 with MIA PaCa-2 cells and on ALDH1A1 enzyme was less than 500 nM in each case.

Take `CC1(C#N)CCN(c2c(C(=O)N3CCN(S(=O)(=O)N4CCCC4)CC3)cnc3c(F)cc(F)cc23)CC1` [Example 168, 1-(6,8-difluoro-3-(4-(pyrrolidin-1-ylsulfonyl)piperazine-1-carbonyl)quinolin-4-yl)-4-methylpiperidine-4-carbonitrile]: the IC50 in the assay on MIA PaCa-2 cells is more than 10000 nM; at ALDH1A1 enzyme, 1000 to 10000 nM.
